Measured values: patent publication US11266636B2, “Maleate salt of the free base of N-[5-(aminosulfonyl)-4-methyl-1,3-thiazol-2-yl]-N-methyl-2-[4-(2-pyridinyl)-phenyl]-acetamide, pharmaceutical formulations, methods of manufacture and uses thereof for the treatment of herpes viruses” (priority 2016, dated 2022)
In brackets after ≈: the same amount, converted by molar mass.

Columns and labels:
herpes simplex virus-2 = conditions: comparison of literature values; cited from earlier work
[1] = Solubility in water and resulting pH; assay type: physicochemical; conditions: for solubility at 22 h: water, thermodynamic from solid
Procedure: Additionally, the solubility of the free base of pritelivir and its aforementioned salts in water was determined and the resulting pH was measured.
For detection, a diode-array detector was used. Absorption was recorded at a wavelength of 300 nm.

[2] = Solubility determination in different pharmaceutical excipients at ambient temperature; conditions: for solubility at 22 h: thermodynamic from solid
Procedure: Dimethyl sulfoxide (DMSO) served as control solvent.
Suspensions were prepared by weighing the test items into glass vials and addition of the appropriate solvent. The suspensions were shortly vortex-mixed and shaken over-head for 22 hours. Aliquots (500 μL) were transferred to filtration devices with polyvinylidene fluoride membranes and the solid matter was separated by centrifugation. The filtrates were diluted (1:100) in acetonitrile/methanol/water/acetic acid (25+25+50+0.5, v+v+v+v).
Control solutions of all salts were prepared in DMSO at a concentration of 20 mg/mL and treated as described above. The solubility was determined by concentration measurement of the diluted filtrate of the oversaturated solutions.
Chromatographic separation was performed on a Phenomenex Luna C18(2), 5 μm column (150×2 mm) by gradient elution using 1% acetic acid and acetonitrile/methanol (1+1, v+v) containing 1% acetic acid. For detection, a diode-array detector was used. Absorption was recorded at a wavelength of 300 nm. A detailed method description was filed in the raw data folder.

[3] = Short-term stability in pharmaceutical excipients over two weeks (ambient temperature and 50° C.); assay type: physicochemical; conditions: for Stability in polyethylene glycol (in words): two weeks storage at 50° C.
Procedure: Additionally, the solubility of the free base of pritelivir and its aforementioned salts in water was determined and the resulting pH was measured. […] For detection, a diode-array detector was used. Absorption was recorded at a wavelength of 300 nm. All calculations were carried out with Microsoft Excel 2010. Mean data are given as arithmetic means. Recoveries were calculated in comparison to the measured start concentration (t0).

[4] = Photostability (xenon lamp, ca. 2000 Wh/m^2, 29 hours, >310 nm), solids and acidic solutions; assay type: physicochemical; conditions: 0.1 M hydrochloric acid/acetonitrile (75+25)
Procedure: The compounds were exposed as solids and dissolved in 0.1 M hydrochloric acid/acetonitrile (75+25, v+v) at a target concentration of 0.3 mg/mL. Corresponding dark control samples were prepared and placed in UV-light protected vials in the irradiation chamber to keep the ambient conditions equivalent. Additionally, untreated solids were dissolved and analyzed as reference samples. Two samples were prepared from each solid test item. Approximately 20 mg of each test item (corrected for free base) was weighed into quartz glass vials. A second aliquot was weighed into light protected glass vials (dark control). Both samples were placed inside the irradiation chamber. […] Two aliquots were prepared (irradiated and dark control sample). The dark control samples were stored inside the irradiation chamber in closed and light protected glass vials, while the photostressed solutions were stored in quartz flasks, equipped only with a loose quartz glass cover. During irradiation, the samples were partially evaporated due to heat production inside the irradiation chamber. The extent of evaporation was variable from sample to sample (the sulphate salt of pritelivir free base was almost completely evaporated). […] The samples (solutions and solid state) were irradiated with a xenon lamp at […] through a glass filter for 29 hours (total applied dose of UV-light ca. 2000 Wh/m^2). The instrument used was a Suntest CPS+ (Atlas). By the use of the glass filter, only wavelengths >310 nm were irradiated, leading to simulation of the ID65 standard (indoor indirect daylight standard). […] The recorded average chamber heat temperature was 38° C. […] The % peak area was determined for the pritelivir free base in all tested samples. […] Absorption was recorded at a wavelength of 280 nm. […] The degree of decomposition was determined by chromatographic separation of (UV-active) degradation products and by determination of the respective percentage of the total peak area (% total peak area) per chromatogram. As salts dissociate in solution, the peak area of the pritelivir free base was determined in all samples.

[5] = Relative solubility in simulated gastric and intestinal fluids (FaSSGF, FaSSIF, FeSSIF); assay type: physicochemical; conditions: 2 hours; for Relative solubility in FaSSIF: fasted state simulated intestinal fluid, pH 6.5, 37° C.; for Relative solubility in FeSSIF: fed state simulated intestinal fluid, pH 5, 37° C.
Procedure: The pH was adjusted to 6.5 by addition of 1 N hydrochloric acid.
The pH was adjusted to 5 by addition of 1 N hydrochloric acid.
Suspensions of the mono ethane sulfonate salt, the maleate salt, the mono benzene sulfonate salt, the hemi ethane-1,2-disulfonate, the mesylate salt or the pritelivir free base were prepared as triplicates by weighing approximately 12 mg test item and addition of 600 μL FaSSGF, FaSSIF or FeSSIF (final concentration 20 mg/mL). The suspensions were incubated at 37° C. Aliquots (100 μL) were transferred into centrifugation devices (polyvinylidene difluoride membrane, 0.2 μm) for removal of solid matter (10 minutes at approximately 15000×g and 37° C.) after 0, 0.5, 1 and 2 hours. FaSSGF filtrates were diluted in acetonitrile to a final dilution of 1:1000. FaSSIF filtrates were diluted in acetonitrile to a final dilution of 1:50 and FeSSIF filtrates to a final dilution of 1:100.
The samples were analyzed for their content of the free base of pritelivir. […] As hydrolysis products were not determined only relative solubility was used for further evaluations of the results.

HSV-2 = conditions: once daily suppressive therapy; cited from earlier work
[6] = 30% Captisol, aqueous with cosolvent or surfactant or cyclodextrin, Solubility in 30% Captisol, ambient temperature, 22 hours shaking
[7] = 30% hydroxypropyl-β-cyclodextrin (HP-beta CD), aqueous with cosolvent or surfactant or cyclodextrin, Solubility in 30% HP-beta CD, 30% Hydroxypropyl-β-cyclodextrin, ambient temperature
[8] = polyethylene glycol (PEG 400), organic solvent or mixture, Solubility in polyethylene glycol (PEG 400), PEG 400, ambient temperature
[9] = propylene glycol, organic solvent or mixture, Solubility in propylene glycol (PG), ambient temperature

## C[C@H](Cn1cnc2c(N)ncnc21)OCP(=O)(O)O [Tenofovir]
Herpes simplex virus-2
  IC50-values compared to the maleate salt: significantly higher

## Cc1nc(N(C)C(=O)Cc2ccc(-c3ccccn3)cc2)sc1S(N)(=O)=O [free base of pritelivir, N-[5-(aminosulfonyl)-4-methyl-1,3-thiazol-2-yl]-N-methyl-2-[4-(2-pyridinyl)-phenyl]-acetamide]
[1]
  solubility at 22 h: 1.3 µg/mL (≈ 0.00323 mM)
[2]; [6]
  solubility at 22 h: 1790 µg/mL (≈ 4.45 mM)
[2]; [7]
  solubility at 22 h: 1910 µg/mL (≈ 4.75 mM)
[2]; [8]
  solubility at 22 h: 89600 µg/mL (≈ 223 mM)
[3]; two weeks, ambient temperature
  Stability in ethanol, PEG and propylene glycol: slight decrease

## Cc1nc(N(C)C(=O)Cc2ccc(-c3ccccn3)cc2)sc1S(N)(=O)=O.O=C(O)/C=C\C(=O)O [maleate salt, maleate salt of the free base of N-[5-(amino-sulfonyl)-4-methyl-1,3-thiazol-2-yl]-N-methyl-2-[4-(2-pyridinyl)phenyl]acetamide]
[1]
  Solubility in water: 480 µg/mL
[4]; 29 hours, total dose 2000 Wh/m^2
  % total peak area of the free base of pritelivir, irradiated solutions: 71.5%
[2]; [6]
  solubility at 22 h: 24500 µg/mL
[2]; [7]
  solubility at 22 h: 24100 µg/mL
[2]; ethanol, organic solvent or mixture, Solubility in ethanol, ambient temperature
  solubility at 22 h: 439 µg/mL
[2]; [8]
  solubility at 22 h: 32200 µg/mL
[2]; propylene glycol, ambient temperature, listed as Maleate Salt of Free Base Pritelivir
  Solubility in propylene glycol (PG): 5230 µg/mL
[2]; [9]
  solubility at 22 h: 5000 to 6000 µg/mL
[5]
  Relative solubility in FaSSIF: essentially similar concentrations
  Relative solubility in FeSSIF: essentially similar concentrations

## Cc1nc(N(C)C(=O)Cc2ccc(-c3ccccn3)cc2)sc1S(N)(=O)=O.O=S(=O)(O)c1ccccc1 [mono benzene sulfonate salt, N-methyl-N-(4-methyl-5-sulfamoylthiazol-2-VI)-2-(4-(pyridin-2-yl)phenyl)acetamide benzenesulfonate]
[5]
  Relative solubility in FaSSIF: essentially similar concentrations
  Relative solubility in FeSSIF: essentially similar concentrations
[3]
  Stability in polyethylene glycol (in words): showed stability

## CCS(=O)(=O)O.Cc1nc(N(C)C(=O)Cc2ccc(-c3ccccn3)cc2)sc1S(N)(=O)=O [mono ethane sulfonate salt, N-methyl-N-(4-methyl-5-sulfamoylthiazol-2-yl)-2-(4-(pyridin-2-yl)phenyl)acetamide ethanesulfonate]
[1]
  solubility at 22 h: 175 to 606 µg/mL
[2]; [9]
  solubility at 22 h: 5000 to 6000 µg/mL
[5]; fasted state simulated gastric fluid, pH 1.6, 37° C.
  Relative solubility in FaSSGF: highest relative solubility
[5]
  Relative solubility in FaSSIF: highest relative solubility
  Relative solubility in FeSSIF: highest relative solubility

## Cc1nc(N(C)C(=O)Cc2ccc(-c3ccccn3)cc2)sc1S(N)(=O)=O.O=S(=O)(O)O [sulfate salt, N-methyl-N-(4-methyl-5-sulfamoylthiazol-2-yl)-2-(4-(pyridin-2-yl)phenyl)acetamide Sulfate]
[1]
  solubility at 22 h: 175 to 606 µg/mL
[4]
  % total peak area of the free base of pritelivir, dark control samples of the acidic solutions: 95.7%
[2]; organic solvent or mixture
  solubility at 22 h: 12500 µg/mL
[3]
  Stability in polyethylene glycol (in words): showed stability

## CC(C)[C@H](N)C(=O)OCCOCn1cnc2c(=O)[nH]c(N)nc21 [valacyclovir]
HSV-2
  Risk of transmission of genital herpes: significantly reduces the risk of transmission

## N-methyl-N-(4-methyl-5-sulfamoylthiazol-2-yl)-2-(4-(pyridin-2-yl)phenyl)acetamide hemiethane-1,2-disulphonate [hemi ethane-1,2-disulfonate salt]
[4]
  % total peak area of the free base of pritelivir, dark control samples of the acidic solutions: 94.7%
